Patent publication US20100173874A1, “Delivery of modulators of glutamate-mediated neurotransmission to the inner ear” (priority 2002, published 2010)
“Also recorded” adds a separate entry of the source.

Assays:
radial dendrites = conditions: intracochlear perfusion ten minutes prior to or concomitant with AMPA perfusion; cited from earlier work
guinea pigs = conditions: intracochlear perfusion; cited from earlier work
auditory nerve fibers = assay: Single unit recording of auditory nerve fibers during intracochlear perfusion (salicylate-induced excitation); format: in vivo, guinea pig
Experimental: (§1) Experiments were performed on adult guinea pigs weighing from about 250 g to 300 g. The animals were anaesthetized with urethane (1.4 g/kg, i.p.) and artificially respired. Supplemental doses of urethane (0.35 g/kg, i.p.) were administered every 2 hr, or more often if the animal withdrew its paw in response to pressure applied to the paw. The rectal temperature was maintained at about 38.5±1° C., and heart rate (normal range 260-330 beats/min) monitored using EKG electrodes. The external auditory canal was opened near the tympanic annulus, exposing the tympanic membrane and allowing sound to reach the drum without any obstruction. At the end of the experiment, the animals were euthanized by intracardiac injection of an overdose of sodium pentobarbitone.
Salicylate Tinnitus Model. Salicylate, the active component of aspirin, is of special concern in auditory science because it induces tinnitus in humans. The efficacy of agents to treat tinnitus was tested by measuring firing rate of the auditory nerve fibers in presence of salicylate.
Briefly, the test solutions were applied into the cochlea using a multi-barrel perfusion pipette (ASI Instruments) placed into a hole made in the basal turn scala tympani and allowed to flow out of the cochlea through a hole (0.2 mm diameter) made at the apex. The cochlear nerve was exposed using a posterior fossa approach. Extracellular action potentials from single auditory nerve fibers were recorded with glass microelectrodes. Once a single unit was isolated, spontaneous activity was averaged over 10 seconds. The unit's tuning curves were then determined by a computer-controlled, threshold-tracking program using a 200 ms tone burst presented at 3/s. The threshold criterion was a difference of 10 spikes/s, i.e., 2 spikes difference between the tone (200 ms) and non-tone (200 ms) counting intervals. The program determined the characteristic frequency (CF) and the frequency tuning of the fiber by measuring the Q10dB defined as the CF divided by the bandwidth at 10 dB above the CF threshold.
An experiment was carried out to determine the ability of perfused Glutamate antagonists to suppress salicylate-induced excitation.

rats [1] = assay: Behavioral model of salicylate-induced tinnitus (active avoidance task)
Experimental: To verify that the excitatory action of sodium-salicylate on the auditory nerve fibers results in perception of tinnitus, a behavioral model was designed in rats based upon an active avoidance task. Animals were trained to respond to a conditioned stimulus consisting of a 10 kHz tone burst of 3 s duration.
(§2) CAP threshold shifts were calculated as the difference in dB between the auditory threshold at day 0 and the auditory threshold at each day. To avoid changes due to hearing loss, the intensity of sound eliciting behavioral responses was adjusted as a function of CAP threshold shift.
Gelfoam placed on the round window was used to apply drugs into the fluid of the cochlea.
To support the hypothesis that salicylate induced false positive via cochlear NMDA receptors, we applied other NMDA antagonists into the perilymphatic fluids using gelfoam placed on the round window of both ears.

rats [2] = conditions: 300 mg/kg/day i.p. during 4 days; frequency range 2 to 26 KHz
Experimental: CAP thresholds were measured using an electrode chronically implanted on round window in response to a tone burst of 1 ms rise/fall time and 9 ms duration presented at a rate of 10 times per second.
as §2

cochlea [3] = assay: CAP amplitude after acute intracochlear perfusion; format: in vivo, guinea pig; conditions: 8 kHz tone burst stimulation, mean of 5 animals
Experimental: as §1

cochlea [4] = assay: CAP amplitude after chronic round window perfusion; format: in vivo, guinea pig; conditions: 8 kHz tone burst stimulation, mean of 5 animals
Experimental: as §1

inner ear = conditions: acute cochlear perfusion; Wang et al., Neuroscience 2002; cited from earlier work
[5] = 300 mg/kg/day i.p., daily during 4 days
[6] = intracochlear perfusion, 50 μM, 5 mM NaSal

With `O=c1[nH]c2cc([N+](=O)[O-])c([N+](=O)[O-])cc2[nH]c1=O` [DNQX, 6-7-dinitorquinoxaline-2,3-dione] as the compound, how does the radial dendrite swelling (radial dendrites) read?
Its radial dendrite swelling is “prevented most of the occurrence of radial dendrite swelling”.

With `O=C(O)c1cc(=O)c2ccccc2[nH]1` [kynurenate] as the compound, how does the “protection against sound-induced synaptic damage” value (guinea pigs) read?
The value was “protects against sound-induced synaptic damage”.

Which “neural excitation of auditory nerve induced by sodium-salicylate” value (“neural excitation” for short) (auditory nerve fibers; intracochlear perfusion, 10 μM) does the source give for Dizocilpine [MK 801] here?
Its value is “suppressed neural excitation induced by sodium-salicylate”.

What about the “spontaneous activity of the auditory nerve fiber” value (“spontaneous activity” below) (auditory nerve fibers; intracochlear perfusion, 10 μM) of the same compound?
Its value is “had no effect on spontaneous activity”.

And the “score under salicylate treatment” value (rats [1]; 10 μM, gelfoam on the round window)?
Its value is “reduction of the score still been unchanged”.

And the “number of false positive responses induced by salicylate” value (rats [1]; 10 μM, gelfoam on the round window, day 4 of salicylate treatment, n=10)?
The value was “drastically reduced the occurrence of the false positive responses”.

For `O=C([O-])c1ccccc1O.[Na+]` [sodium-salicylate], which “spontaneous firing of the auditory nerve fibers” value (auditory nerve fibers; intracochlear application, 5 mM) is on record?
The value was “reversibly increased spontaneous firing of the auditory nerve fibers”.

What about the “number of false positives (responses without sound)” value (rats [1]; [5]) of the same compound?
Its value is “drastic increase of the number of false positives”.

And the “score (positive responses to sound, % of total)” value (rats [1]; [5])?
Its value is “reversible reduction of the score”.

What about the “score (positive responses to sound)” value (rats [1]; salicylate days 2 to 5, sound intensity adjusted as a function of CAP threshold shift) of the same compound?
Its value is “no significant decrease in the score was observed”.

What about the false positive responses (rats [1]; salicylate treatment, sound intensity adjusted as a function of CAP threshold shift) of the same compound?
Its false positive responses is “false positive responses still remained”.

And the “hearing loss (CAP threshold)” value (rats [2])?
Its value is 30 dB.

With `CC1CCCCC1(c1cccs1)N1CCCCC1` (stereo not shown) [gacyclidine, Gacyclidine] as the compound, how does the “spontaneous activity” value (auditory nerve fibers; intracochlear perfusion, 50 μM) read?
The value was “had no effect on spontaneous activity; also recorded: not the spontaneous activity of the fiber”.

And the “neural excitation” value (auditory nerve fibers; [6])?
Its value is “suppressed neural excitation induced by sodium-salicylate; also recorded: suppressed neural excitation of auditory nerve induced by Na Salicylate”.

And the “score under salicylate treatment” value (rats [1]; 50 μM, gelfoam on the round window)?
Its value is “reduction of the score still been unchanged”.

With `CNC(=O)N1N=C(c2ccc(N)cc2)c2cc3c(cc2C[C@H]1C)OCO3` [GYKI 53784] as the compound, how does the “auditory nerve fiber activity evoked by sound” value (auditory nerve fibers; intracochlear perfusion, 50 μM) read?
The value was “blocked both spontaneous activity and those evoked induced by sodium-salicylate or sound”.

What about the “spontaneous activity” value (auditory nerve fibers; intracochlear perfusion, 50 μM) of the same compound?
Its value is “blocked both the spontaneous and the evoked activity”.

What about the “neural excitation” value (auditory nerve fibers; [6]) of the same compound?
The value was “blocked both the spontaneous and the evoked activity”.

With `COc1ccc2c(c1)c(CC(=O)O)c(C)n2C(=O)c1ccc(Cl)cc1` [indomethacin] as the compound, how does the “spontaneous activity” value (auditory nerve fibers; intracochlear perfusion, 100 μM in artificial perilymph, fiber coding for 8 kHz) read?
The value was “did not change the spontaneous activity of the auditory nerve fiber”.

What does the source list for `Nc1nc2ccc(OC(F)(F)F)cc2s1` [Riluzole]?
mean amplitude of the CAP (cochlea [3]): reduce the CAP amplitude in a dose-dependent manner; mean amplitude of the CAP (cochlea [4]): reduced the CAP amplitude in the dose dependent manner; hearing after noise induced hearing loss (inner ear): rescues hearing after noise induced hearing loss
